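All cell lines were grown in 96-well plates and treated with compound for 48 hours. TGI: total growth inhibition.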
Legend:
Experiment in all cases: NCI anticancer screen, dose series, 48 h
[1] = test system: 786-0 renal
[2] = test system: A498 renal
[3] = test system: A549 NSCLC
[4] = test system: ACHN renal
[5] = test system: BT-549 breast
[6] = test system: CAKI-1 renal
[7] = test system: COLO 205 colon
[8] = test system: DU-145 prostate
[9] = test system: EKVX NSCLC
[10] = test system: HCC-2998 colon
[11] = test system: HCT-116 colon
[12] = test system: HCT-15 colon
[13] = test system: HL-60(TB) leukemia
[14] = test system: HOP-62 NSCLC
[15] = test system: HOP-92 NSCLC
[16] = test system: HS 578T breast
[17] = test system: HT29 colon
[18] = test system: IGROV1 ovarian
[19] = test system: K-562 leukemia
[20] = test system: KM12 colon
[21] = test system: LOX IMVI melanoma
[22] = test system: M14 melanoma
[23] = test system: MALME-3M melanoma
[24] = test system: MCF7 breast
[25] = test system: MDA-MB-231 breast
[26] = test system: MDA-MB-435
[27] = test system: MDA-N
[28] = test system: MOLT-4 leukemia
[29] = test system: NCI-H226 lung
[30] = test system: NCI-H23 lung
[31] = test system: NCI-H460 lung
[32] = test system: NCI-H522 lung
[33] = test system: NCI/ADR-RES ovarian
[34] = test system: OVCAR-3 ovarian
[35] = test system: OVCAR-4 ovarian
[36] = test system: OVCAR-5 ovarian
[37] = test system: OVCAR-8 ovarian
[38] = test system: PC-3 prostate
[39] = test system: RPMI-8226 leukemia
[40] = test system: RXF 393 renal
[41] = test system: SF-268 CNS
[42] = test system: SF-295 CNS
[43] = test system: SF-539 CNS
[44] = test system: SK-MEL-2 melanoma
[45] = test system: SK-MEL-28 melanoma
[46] = test system: SK-MEL-5 melanoma
[47] = test system: SN12C renal
[48] = test system: SNB-19 CNS
[49] = test system: SR leukemia
[50] = test system: SW-620 colon
[51] = test system: TK-10 renal
[52] = test system: U251 CNS
[53] = test system: UACC-257 melanoma
[54] = test system: UACC-62 melanoma
[55] = test system: UO-31 renal
[56] = test system: CCRF-CEM leukemia
[57] = test system: SK-OV-3 ovarian
[58] = test system: SNB-75 CNS
[59] = test system: T-47D breast

With C[C@@]1(O)C[C@@H](N2C(=O)O[C@@H](c3ccccc3)[C@H]2c2ccccc2)[C@@H]1COCc1ccccc1 the TGI [1] was 48.9 µM, the TGI [2] was 52.9 µM and the TGI [3] was 97.9 µM. For the same compound, the TGI [4] was > 100 µM, the TGI [5] was 51.2 µM and the TGI [6] was > 100 µM. The TGI [7] was 36.4 µM, the TGI [8] was > 100 µM and the TGI [9] was 70.3 µM. For the same compound, the TGI [10] was 58.4 µM, the TGI [11] was 47.4 µM and the TGI [12] was 84.3 µM. For the same compound, the TGI [13] was 23.5 µM, the TGI [14] was 75.3 µM and the TGI [15] was 89 µM. The TGI [16] was 62.9 µM, the TGI [17] was 50.6 µM and the TGI [18] was > 100 µM. The TGI [19] was > 100 µM, the TGI [20] was 74.3 µM and the TGI [21] was 32.9 µM. The TGI [22] was 30 µM, the TGI [23] was 46.8 µM and the TGI [24] was > 100 µM. The TGI [25] was 39.8 µM, the TGI [26] was > 100 µM and the TGI [27] was 38.5 µM. It also gave a TGI [28] of 26.4 µM, a TGI [29] of 42.8 µM and a TGI [30] of 43.6 µM. The TGI [31] was 68.1 µM, the TGI [32] was 38.3 µM and the TGI [33] was 64.8 µM. For the same compound, the TGI [34] was 46.1 µM, the TGI [35] was > 100 µM and the TGI [36] was 78.2 µM. The TGI [37] was 54 µM, the TGI [38] was 50.3 µM and the TGI [39] was 68.8 µM. The TGI [40] was 80.2 µM, the TGI [41] was 48.1 µM and the TGI [42] was 41.3 µM. The TGI [43] was 38.4 µM, the TGI [44] was 27.5 µM and the TGI [45] was 44.5 µM. The TGI [46] was 27.2 µM, the TGI [47] was 38.5 µM and the TGI [48] was > 100 µM. The TGI [49] was 52.7 µM, the TGI [50] was > 100 µM and the TGI [51] was 99.7 µM. The TGI [52] was 32.9 µM, the TGI [53] was 36.7 µM and the TGI [54] was 31.5 µM. For the same compound, the TGI [55] was 67.8 µM.

CCOc1cccc(/C=N/N=C2\C(=O)Nc3c(Cl)cc(Cl)cc32)c1O was tested, and the TGI [1] was > 100 µM, the TGI [2] was > 100 µM and the TGI [3] was > 100 µM. The TGI [4] was > 100 µM, the TGI [5] was > 100 µM and the TGI [6] was > 100 µM. For the same compound, the TGI [56] was > 100 µM, the TGI [7] was > 100 µM and the TGI [9] was > 100 µM. The TGI [10] was > 100 µM, the TGI [11] was > 100 µM and the TGI [12] was > 100 µM. The TGI [13] was > 100 µM, the TGI [14] was > 100 µM and the TGI [15] was > 100 µM. For the same compound, the TGI [16] was > 100 µM, the TGI [17] was > 100 µM and the TGI [18] was > 100 µM. For the same compound, the TGI [19] was > 100 µM, the TGI [20] was > 100 µM and the TGI [21] was > 100 µM. The TGI [22] was > 100 µM, the TGI [23] was > 100 µM and the TGI [24] was > 100 µM. The TGI [25] was > 100 µM, the TGI [26] was > 100 µM and the TGI [27] was > 100 µM. For the same compound, the TGI [28] was > 100 µM, the TGI [29] was > 100 µM and the TGI [30] was > 100 µM. For the same compound, the TGI [31] was > 100 µM, the TGI [33] was > 100 µM and the TGI [34] was > 100 µM. The TGI [35] was > 100 µM, the TGI [36] was > 100 µM and the TGI [37] was > 100 µM. For the same compound, the TGI [38] was > 100 µM, the TGI [40] was > 100 µM and the TGI [42] was > 100 µM. The TGI [43] was > 100 µM, the TGI [44] was > 100 µM and the TGI [45] was > 100 µM. The TGI [46] was > 100 µM, the TGI [57] was > 100 µM and the TGI [47] was > 100 µM. For the same compound, the TGI [48] was > 100 µM, the TGI [58] was 89.6 µM and the TGI [49] was > 100 µM. The TGI [50] was > 100 µM, the TGI [51] was > 100 µM and the TGI [52] was > 100 µM. The TGI [53] was > 100 µM, the TGI [54] was > 100 µM and the TGI [55] was > 100 µM.

For O=C1CSC(=S)N1, the TGI [1] was > 100 µM, the TGI [3] was > 100 µM and the TGI [4] was > 100 µM. For the same compound, the TGI [6] was > 100 µM, the TGI [56] was > 100 µM and the TGI [7] was > 100 µM. For the same compound, the TGI [8] was > 100 µM, the TGI [9] was > 100 µM and the TGI [10] was > 100 µM. The TGI [11] was > 100 µM, the TGI [12] was > 100 µM and the TGI [13] was > 100 µM. The TGI [14] was > 100 µM, the TGI [15] was > 100 µM and the TGI [16] was > 100 µM. The TGI [18] was > 100 µM, the TGI [19] was > 100 µM and the TGI [20] was > 100 µM. For the same compound, the TGI [21] was > 100 µM, the TGI [22] was > 100 µM and the TGI [23] was > 100 µM. For the same compound, the TGI [24] was > 100 µM, the TGI [25] was > 100 µM and the TGI [27] was > 100 µM. For the same compound, the TGI [28] was > 100 µM, the TGI [29] was > 100 µM and the TGI [30] was > 100 µM. For the same compound, the TGI [31] was > 100 µM, the TGI [32] was > 100 µM and the TGI [33] was > 100 µM. For the same compound, the TGI [34] was > 100 µM, the TGI [36] was > 100 µM and the TGI [37] was > 100 µM. For the same compound, the TGI [38] was > 100 µM, the TGI [39] was > 100 µM and the TGI [41] was > 100 µM. The TGI [42] was > 100 µM, the TGI [43] was > 100 µM and the TGI [44] was > 100 µM. The TGI [45] was > 100 µM, the TGI [46] was > 100 µM and the TGI [47] was > 100 µM. For the same compound, the TGI [48] was > 100 µM, the TGI [58] was > 100 µM and the TGI [49] was > 100 µM. The TGI [50] was > 100 µM, the TGI [59] was > 100 µM and the TGI [51] was > 100 µM. For the same compound, the TGI [52] was > 100 µM, the TGI [53] was > 100 µM and the TGI [55] was > 100 µM.

Reference: PubChem BioAssay (NCI)
